Like-named read-outs stand apart in the source and are kept apart here.
How the values were obtained:
[1] = target: T1, ROCK2 (Homo sapiens, UniProt O75116); test: Rho kinase inhibition assay (IMAP fluorescence polarization), ROCK2; type: biochemical; conditions: 10 μM ATP, 60 min at room temperature
T1 construct: purchased Upstate/Chemicon 14-451
Procedure: (Molecular Devices product number R7184) was pre-incubated with a test compound for 5 minutes in buffer containing 10 mM Tris-HCl pH 7.2, 10 mM MgCl2, and 0.1% BSA. Following the pre-incubation, 10 μM ATP was added to initiate the reaction. After 60 minutes at room temperature, Molecular Devices IMAP™ binding solution was added to bind phosphorylated substrate. After 30 minutes of incubation in the presence of the IMAP™ beads, the fluorescence polarization was read and the ratio was reported as mP.
See Tian et al., Arch. Ophthalmol. […] Ophthalmol. Vis. […] Ophthalmol. […] Cytoskel. […] Ophthalmol. Vis. […] Ophthalmol. Vis.

[2] = target: T2, ROCK1 (Homo sapiens, UniProt Q13464); test: Rho kinase inhibition assay (IMAP fluorescence polarization), ROCK1; type: biochemical
T2 construct: purchased Upstate/Chemicon 14-601
Procedure: Following the pre-incubation, 10 μM ATP was added to initiate the reaction. After 60 minutes at room temperature, Molecular Devices IMAP™ binding solution was added to bind phosphorylated substrate. After 30 minutes of incubation in the presence of the IMAP™ beads, the fluorescence polarization was read and the ratio was reported as mP.

[3] = Ocular surface and aqueous humor bioavailability; type: in vivo, New Zealand White rabbits; conditions: New Zealand White, rabbit, topical, 30 μl of 1 mM (0.04% w/v) per eye
Procedure: Dose Formulation and Administration. Compounds 14 (prodrug) and 49 (base compound) were formulated at 0.04% w/v (the equivalent millimolar concentration is 1 mM) in 10 mM phosphate, 0.8% polysorbate 80, 0.85% NaCl, 0.01% BAC, 0.1% EDTA at pH 7.3. Each compound was administered as a 30 μl drop to both eyes of each animal within a dosing group and the ocular and systemic exposure was examined as described in Example 49.
Study sampling. 40 μL of saline was applied to the eyes at 0.083, 1, 2, and 4 hours after administration of each compound and the lavage fluids were collected as samples. Aqueous humor and ocular surface samples were obtained from 2 animals (4 eyes) per dosing group at 0.083, 1, 2, and 4 hours post dosing, by the methods described in Example 49. Ocular surface relates to the surface of the cornea and conjunctiva. Ocular surface residence time is the average time that a compound resides on the ocular surface.

[4] = 10 μM ATP, 60 min at room temperature, read-out: ROCK1 IC50
[5] = ocular surface (saline lavage fluid)

T2 sequence (Q13464 whole entry): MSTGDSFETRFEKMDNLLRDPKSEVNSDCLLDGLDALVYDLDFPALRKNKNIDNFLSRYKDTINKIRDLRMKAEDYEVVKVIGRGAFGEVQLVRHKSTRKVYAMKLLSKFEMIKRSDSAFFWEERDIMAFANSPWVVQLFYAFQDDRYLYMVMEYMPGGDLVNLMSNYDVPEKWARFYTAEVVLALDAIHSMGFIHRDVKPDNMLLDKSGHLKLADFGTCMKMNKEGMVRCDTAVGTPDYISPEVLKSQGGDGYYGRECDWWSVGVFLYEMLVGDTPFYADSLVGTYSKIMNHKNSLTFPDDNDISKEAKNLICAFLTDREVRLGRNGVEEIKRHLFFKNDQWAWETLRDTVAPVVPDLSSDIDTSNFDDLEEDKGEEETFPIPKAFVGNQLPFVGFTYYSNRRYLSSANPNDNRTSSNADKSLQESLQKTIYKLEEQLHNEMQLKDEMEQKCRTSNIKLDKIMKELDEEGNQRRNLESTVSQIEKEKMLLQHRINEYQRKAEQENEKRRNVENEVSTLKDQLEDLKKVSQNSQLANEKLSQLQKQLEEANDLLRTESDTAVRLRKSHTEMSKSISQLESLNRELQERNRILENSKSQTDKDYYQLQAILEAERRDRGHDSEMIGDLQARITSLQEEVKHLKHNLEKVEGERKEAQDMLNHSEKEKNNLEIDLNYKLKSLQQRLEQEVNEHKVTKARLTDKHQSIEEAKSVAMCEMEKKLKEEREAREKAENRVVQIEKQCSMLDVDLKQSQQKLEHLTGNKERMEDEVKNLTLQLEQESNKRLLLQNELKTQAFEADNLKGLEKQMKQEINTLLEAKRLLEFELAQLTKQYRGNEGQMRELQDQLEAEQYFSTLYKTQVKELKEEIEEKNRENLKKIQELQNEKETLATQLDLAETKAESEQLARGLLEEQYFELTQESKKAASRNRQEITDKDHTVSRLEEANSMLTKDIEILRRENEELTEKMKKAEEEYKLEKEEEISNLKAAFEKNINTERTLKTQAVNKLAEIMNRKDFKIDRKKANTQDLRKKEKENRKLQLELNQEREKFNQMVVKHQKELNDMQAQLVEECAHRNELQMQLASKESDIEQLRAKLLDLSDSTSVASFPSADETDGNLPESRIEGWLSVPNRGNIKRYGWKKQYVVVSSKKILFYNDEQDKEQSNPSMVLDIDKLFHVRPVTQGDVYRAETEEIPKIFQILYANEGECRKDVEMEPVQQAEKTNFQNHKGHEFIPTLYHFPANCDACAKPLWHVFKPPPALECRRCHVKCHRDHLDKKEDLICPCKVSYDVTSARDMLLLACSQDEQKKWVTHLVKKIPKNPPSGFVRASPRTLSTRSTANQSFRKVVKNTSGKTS
T1 sequence (O75116 whole entry): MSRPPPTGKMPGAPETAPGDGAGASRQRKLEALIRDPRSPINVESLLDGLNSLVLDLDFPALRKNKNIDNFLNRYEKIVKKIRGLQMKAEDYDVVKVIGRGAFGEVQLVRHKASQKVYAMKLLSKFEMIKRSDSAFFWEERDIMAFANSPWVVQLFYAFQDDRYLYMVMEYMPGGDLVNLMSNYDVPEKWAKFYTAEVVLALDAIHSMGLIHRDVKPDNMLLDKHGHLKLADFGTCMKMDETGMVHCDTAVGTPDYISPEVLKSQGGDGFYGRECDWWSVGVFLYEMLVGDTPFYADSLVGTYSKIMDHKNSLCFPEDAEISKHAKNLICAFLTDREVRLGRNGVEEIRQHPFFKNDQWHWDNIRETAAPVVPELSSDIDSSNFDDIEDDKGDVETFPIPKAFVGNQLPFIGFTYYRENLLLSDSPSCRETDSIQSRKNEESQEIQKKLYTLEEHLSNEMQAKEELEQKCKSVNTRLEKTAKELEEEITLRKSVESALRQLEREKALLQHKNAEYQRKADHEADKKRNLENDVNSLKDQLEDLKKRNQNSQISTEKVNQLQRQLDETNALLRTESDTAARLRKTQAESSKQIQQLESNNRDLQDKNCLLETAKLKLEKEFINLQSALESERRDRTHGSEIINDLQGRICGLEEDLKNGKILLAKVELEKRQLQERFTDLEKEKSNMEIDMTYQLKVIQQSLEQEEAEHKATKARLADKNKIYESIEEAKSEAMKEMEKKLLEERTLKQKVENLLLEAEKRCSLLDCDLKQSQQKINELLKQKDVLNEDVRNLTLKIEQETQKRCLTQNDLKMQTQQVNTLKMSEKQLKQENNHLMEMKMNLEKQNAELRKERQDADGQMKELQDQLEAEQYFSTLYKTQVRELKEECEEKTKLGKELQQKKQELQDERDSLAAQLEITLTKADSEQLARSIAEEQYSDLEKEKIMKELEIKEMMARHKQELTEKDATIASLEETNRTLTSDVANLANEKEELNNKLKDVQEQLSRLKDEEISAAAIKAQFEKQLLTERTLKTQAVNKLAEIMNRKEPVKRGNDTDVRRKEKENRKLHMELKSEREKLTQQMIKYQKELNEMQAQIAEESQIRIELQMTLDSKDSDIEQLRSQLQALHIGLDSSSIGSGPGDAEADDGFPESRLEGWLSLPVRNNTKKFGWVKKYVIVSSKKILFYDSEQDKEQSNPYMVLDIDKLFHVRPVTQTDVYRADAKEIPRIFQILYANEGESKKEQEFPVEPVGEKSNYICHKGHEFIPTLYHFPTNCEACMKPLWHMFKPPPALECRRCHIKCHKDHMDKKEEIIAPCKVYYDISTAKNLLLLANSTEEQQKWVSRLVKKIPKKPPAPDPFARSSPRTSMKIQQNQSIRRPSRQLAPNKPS

Row | Compound | IC50 [1] | IC50 [2] | IC50 [2, 4] | also measured
1 | CC(=O)NCCOc1cccc(CN2CCC[C@@H](Nc3ccc4[nH]ncc4c3)C2)c1 [Compound 29, N-(2-(3-(((R)-3-(1H-indazol-5-ylamino)piperidin-1-yl)methyl)phenoxy)ethyl) acetamide] | 987 nM | 5160 nM | – | –
2 | CC(C)CC(=O)OCCOc1cccc(CN2CC[C@@H](Nc3cccc4cnccc34)C2)c1 [Compound 18, 2-(3-((((R)-3-(isoquinolin-5-ylamino)pyrrolidin-1-yl)methyl)phenoxy)ethyl 3-methylbutanoate)] | 1490 nM | – | 3820 nM | –
3 | O=C(COc1cccc(CN2CCC[C@@H](Nc3ccc4[nH]ncc4c3)C2)c1)Nc1cccnc1 [Compound 33, 2-(3-(((R)-3-(1H-indazol-5-ylamino)piperidin-1-yl)methyl)phenoxy)-N-(pyridin-3-yl)acetamide] | 155 nM | 1010 nM | – | –
4 | CCOC(=O)c1ccc(CN2CCC[C@@H](Nc3ccc4[nH]ncc4c3)C2)cc1 [Compound 44, Ethyl 4-(((R)-3-(1H-indazol-5-ylamino)piperidin-1-yl)methyl)benzoate] | 6190 nM | 117000 nM | – | –
5 | O=C(COc1cccc(CN2CCC[C@@H](Nc3ccc4[nH]ncc4c3)C2)c1)N1CCOCC1 [Compound 34, 2-(3-(((R)-3-(1H-indazol-5-ylamino)piperidin-1-yl)methyl)phenoxy)-1-morpholinoethanone] | 102 nM | 1280 nM | – | –
6 | O=C(OCCOc1cccc(CN2CCC[C@@H](Nc3ccc4[nH]ncc4c3)C2)c1)c1ccccc1 [Compound 32, 2-(3-((R)-3-(1H-indazol-5-ylamino)piperidin-1-yl)methyl)phenoxy)ethyl benzoate] | 3020 nM | 7080 nM | – | –
7 | OCCOc1cccc(CN2CC[C@@H](Nc3cccc4cnccc34)C2)c1 [Compound 48, 2-(3-(((R)-3-(isoquinolin-5-ylamino)pyrrolidin-1-yl)methyl)phenoxy)ethanol] | 6.7 nM | 19 nM | – | –
8 | CC(=O)Nc1ccc(CN2CCC(Nc3cccc4cnccc34)C2)cc1 (stereo not drawn) [Compound 25, N-(4-((3-(isoquinolin-5-ylamino)pyrrolidin-1-yl)methyl)phenyl)acetamide] | 2300 nM | – | – | –
9 | CC(=O)NCc1cccc(CN2CCC[C@@H](Nc3ccc4[nH]ncc4c3)C2)c1 [Compound 42, N-((3-(((R)-3-(1H-indazol-5-ylamino)piperidin-1-yl)methyl)phenyl)methyl) acetamide] | 341 nM | 2420 nM | – | –
10 | CC(C)(C)C(=O)OCCOc1cccc(CN2CC[C@@H](Nc3cccc4cnccc34)C2)c1 [Compound 20, 2-(3-(((R)-3-(isoquinolin-5-ylamino)pyrrolidin-1-yl)methyl)phenoxy)ethyl pivalate] | 1770 nM | – | 4810 nM | –
11 | Cc1ccc(CN2CC[C@@H](Nc3cccc4cnccc34)C2)cc1OCCO [Compound 49, [2-(5-(((R)-3-(isoquinolin-5-ylamino)pyrrolidin-1-yl)methyl)-2-methylphenoxy)]ethanol] | – | 4.1 nM | – | concentration at 1 h ([3]; aqueous humor): 93.9 nM; concentration at 2 h ([3]; aqueous humor): 24 nM; concentration at 4 h ([3]; aqueous humor): 3.4 nM; concentration at 1 h [3, 5]: 846 nM; concentration at 2 h [3, 5]: 893 nM; concentration at 4 h [3, 5]: 65.7 nM
12 | CCOC(=O)COc1cccc(CN2CCC[C@H](Nc3ccc4[nH]ncc4c3)C2)c1 [Compound 28] | 109 nM | 1030 nM | – | –
13 | CC(C)(C)OC(=O)COc1cccc(CN2CCC[C@H](Nc3ccc4[nH]ncc4c3)C2)c1 [Compound 27, tert-Butyl 2-(3-(((S)-3-(1H-indazol-5-ylamino)piperidin-1-yl)methyl)phenoxy) acetate] | 251 nM | 3440 nM | – | –
14 | Cc1ccc(CN2CCC[C@@H](Nc3ccc4[nH]ncc4c3)C2)cc1OCCOC(=O)c1ccccc1 [Compound 26, 2-(5-(((R)-3-(1H-indazol-5-ylamino)piperidin-1-yl)methyl)-2-methylphenoxy)ethyl benzoate] | 621 nM | – | 6060 nM | –
15 | CCOC(=O)OCCOc1cccc(CN2CC[C@@H](Nc3cccc4cnccc34)C2)c1 [Compound 17, 2-(3-(((R)-3-(isoquinolin-5-ylamino)pyrrolidin-1-yl)methyl)phenoxy)ethyl ethyl carbonate] | 369 nM | – | 1220 nM | –
16 | O=C(OCCOc1cccc(CN2CC[C@@H](Nc3cccc4cnccc34)C2)c1)c1cccnc1 [Compound 21, 2-(3-(((R)-3-(isoquinolin-5-ylamino)pyrrolidin-1-yl)methyl)phenoxy)ethyl nicotinate] | 512 nM | – | 1910 nM | –
17 | tent-Butyl (3-((3-(1H-indazol-5-ylamino)piperidin-1-yl)methyl)phenyl)methyl carbamate [Compound 40] | 6590 nM | – | – | –
18 | O=C(OCCOc1cccc(CN2CCC[C@H](Nc3ccc4[nH]ncc4c3)C2)c1)c1ccccc1 [Compound 31, 2-(3-(((S)-3-(1H-indazol-5-ylamino)piperidin-1-yl)methyl)phenoxy)ethyl benzoate] | 1230 nM | 5650 nM | – | –
19 | tert-Butyl (4-(((S)-3-(1H-indazol-5-ylamino)piperidin-1-yl)methyl)phenyl) methylcarbamate [Compound 43] | 4000 nM | – | 25400 nM | –
20 | CCOC(=O)c1ccc(CN2CCC[C@H](Nc3ccc4[nH]ncc4c3)C2)cc1 [Compound 45, Ethyl 4-(((S)-3-(1H-indazol-5-ylamino)piperidin-1-yl)methyl)benzoate] | 6180 nM | 45500 nM | – | –
21 | CC1(C(=O)OCCOc2cccc(CN3CC[C@@H](Nc4cccc5cnccc45)C3)c2)CC1 [Compound 19, 2-(3-(((R)-3-(isoquinolin-5-ylamino)pyrrolidin-1-yl)methyl)phenoxy)ethyl 1-methylcyclopropanecarboxylate] | 1050 nM | – | 3060 nM | –
22 | CCOC(=O)COc1cccc(CN2CCCC(Nc3ccc4[nH]ncc4c3)C2)c1 (stereo not drawn) [Compound 41, Ethyl 2-(3-((3-(1H-indazol-5-ylamino)piperidin-1-yl)methyl)phenoxy)acetate] | 87 nM | – | – | –
23 | CC(=O)NCCOc1cccc(CN2CCC[C@H](Nc3ccc4[nH]ncc4c3)C2)c1 [Compound 30, N-(2-(3-(((S)-3-(1H-indazol-5-ylamino)piperidin-1-yl)methyl)phenoxy)ethyl) acetamide] | 451 nM | 5390 nM | – | –

— US20130131059A1, “METHOD FOR TREATING OPHTHALMIC DISEASES USING KINASE INHIBITOR COMPOUNDS IN PRODRUG FORMS” (INSPIRE PHARMACEUTICALS, INC., priority 2010, published 2013)
